Patent publication US7507739B2, “6-[(substituted)phenyl]triazolopyrimidines as anticancer agents” (Wyeth, priority 2003, dated 2009)
Marks after values point to notes of the source that are not given here.

Columns and labels:
HeLa cells = experiment: Cell cycle analysis with HeLa cells; type: cell-based, human; settings: 18 hr
Procedure: HeLa cells are harvested by trypsinization, washed, counted and distributed to wells of 12-well plates at 125,000 cells per well in 2 mL medium. Cells are cultured overnight. […] Cells are continued in culture for 18 hr after compound addition, then cells in each well are harvested (taking care to recover both adherent and non-adherent cells) and processed using the CycleTEST PLUS kit (Becton Dickinson Immunocytometry Systems, San Jose, Calif.). Flow cytometry is done with a FACSort instrument (Becton Dickinson).
This procedure measures the percentages of cells in a population that are in the G1, S, and G2/M phases of the cell cycle. It utilizes staining of cell nuclei with propidium iodide and analysis by flow cytometry.

[1] = test system: DLD1 Human Colon Carcinoma; experiment: Human tumor xenograft test, DLD1; type: in vivo; settings: days 1, 5, 9, 13

With CN(C)CCCOc1cc(F)c(-c2c(Cl)nc3ncnn3c2NCC(F)(F)F)c(F)c1.Cl [Example 4a, 5-Chloro-6-{4-[3-(dimethylamino)propoxy]-2,6-difluorophenyl}-N-(2,2,2-trifluoroethyl)[1,2,4]triazolo[1,5-a]pyrimidin-7-amine Hydrogen chloride Salt] the “Percent in Cell Cycle Phase >4N” value (HeLa cells; 20 nM) was 2%, the “Percent in Cell Cycle Phase Apop” value (HeLa cells; 20 nM) was 6% and the “Percent in Cell Cycle Phase G1” value (HeLa cells; 20 nM) was 60%. The “Percent in Cell Cycle Phase G2/M” value (HeLa cells; 20 nM) was 15%, the “Percent in Cell Cycle Phase S” value (HeLa cells; 20 nM) was 17% and the “Percent in Cell Cycle Phase >4N” value (HeLa cells; 30 nM) was 1%. For the same compound, the “Percent in Cell Cycle Phase Apop” value (HeLa cells; 30 nM) was 44%, the “Percent in Cell Cycle Phase G1” value (HeLa cells; 30 nM) was 29% and the “Percent in Cell Cycle Phase G2/M” value (HeLa cells; 30 nM) was 15%. For the same compound, the “Percent in Cell Cycle Phase S” value (HeLa cells; 30 nM) was 12%, the “Percent in Cell Cycle Phase >4N” value (HeLa cells; 40 nM) was 2% and the “Percent in Cell Cycle Phase Apop” value (HeLa cells; 40 nM) was 65%. The “Percent in Cell Cycle Phase G1” value (HeLa cells; 40 nM) was 8%, the “Percent in Cell Cycle Phase G2/M” value (HeLa cells; 40 nM) was 17% and the “Percent in Cell Cycle Phase S” value (HeLa cells; 40 nM) was 8%. For the same compound, the “Percent in Cell Cycle Phase >4N” value (HeLa cells; 50 nM) was 2%, the “Percent in Cell Cycle Phase Apop” value (HeLa cells; 50 nM) was 54% and the “Percent in Cell Cycle Phase G1” value (HeLa cells; 50 nM) was 6%. The “Percent in Cell Cycle Phase G2/M” value (HeLa cells; 50 nM) was 29%, the “Percent in Cell Cycle Phase S” value (HeLa cells; 50 nM) was 9% and the “Percent in Cell Cycle Phase >4N” value (HeLa cells; 60 nM) was 2%. For the same compound, the “Percent in Cell Cycle Phase Apop” value (HeLa cells; 60 nM) was 64%, the “Percent in Cell Cycle Phase G1” value (HeLa cells; 60 nM) was 13% and the “Percent in Cell Cycle Phase G2/M” value (HeLa cells; 60 nM) was 15%. For the same compound, the “Percent in Cell Cycle Phase S” value (HeLa cells; 60 nM) was 8%, the “Percent in Cell Cycle Phase >4N” value (HeLa cells; 70 nM) was 4% and the “Percent in Cell Cycle Phase Apop” value (HeLa cells; 70 nM) was 25%. The “Percent in Cell Cycle Phase G1” value (HeLa cells; 70 nM) was 3%, the “Percent in Cell Cycle Phase G2/M” value (HeLa cells; 70 nM) was 60% and the “Percent in Cell Cycle Phase S” value (HeLa cells; 70 nM) was 8%. The “Percent in Cell Cycle Phase >4N” value (HeLa cells; 80 nM) was 5%, the “Percent in Cell Cycle Phase Apop” value (HeLa cells; 80 nM) was 20% and the “Percent in Cell Cycle Phase G1” value (HeLa cells; 80 nM) was 5%. The “Percent in Cell Cycle Phase G2/M” value (HeLa cells; 80 nM) was 63%, the “Percent in Cell Cycle Phase S” value (HeLa cells; 80 nM) was 7% and the “Percent in Cell Cycle Phase >4N” value (HeLa cells; 90 nM) was 5%. For the same compound, the “Percent in Cell Cycle Phase Apop” value (HeLa cells; 90 nM) was 22%, the “Percent in Cell Cycle Phase G1” value (HeLa cells; 90 nM) was 5% and the “Percent in Cell Cycle Phase G2/M” value (HeLa cells; 90 nM) was 59%. The “Percent in Cell Cycle Phase S” value (HeLa cells; 90 nM) was 10%, the “Percent in Cell Cycle Phase >4N” value (HeLa cells; 100 nM) was 5% and the “Percent in Cell Cycle Phase Apop” value (HeLa cells; 100 nM) was 23%. The “Percent in Cell Cycle Phase G1” value (HeLa cells; 100 nM) was 7%, the “Percent in Cell Cycle Phase G2/M” value (HeLa cells; 100 nM) was 57% and the “Percent in Cell Cycle Phase S” value (HeLa cells; 100 nM) was 9%. For the same compound, the “Percent in Cell Cycle Phase >4N” value (HeLa cells; 110 nM) was 5%, the “Percent in Cell Cycle Phase Apop” value (HeLa cells; 110 nM) was 23% and the “Percent in Cell Cycle Phase G1” value (HeLa cells; 110 nM) was 6%. For the same compound, the “Percent in Cell Cycle Phase G2/M” value (HeLa cells; 110 nM) was 56%, the “Percent in Cell Cycle Phase S” value (HeLa cells; 110 nM) was 10% and the “Percent in Cell Cycle Phase >4N” value (HeLa cells; 120 nM) was 4%. The “Percent in Cell Cycle Phase Apop” value (HeLa cells; 120 nM) was 27%, the “Percent in Cell Cycle Phase G1” value (HeLa cells; 120 nM) was 7% and the “Percent in Cell Cycle Phase G2/M” value (HeLa cells; 120 nM) was 53%. For the same compound, the “Percent in Cell Cycle Phase S” value (HeLa cells; 120 nM) was 10%, the “T/C on day 0” value ([1]; DLD1, 10 mg/kg IV) was 1.00 and the “T/C on day 7” value ([1]; DLD1, 10 mg/kg IV) was 0.56. For the same compound, the “T/C on day 14” value ([1]; DLD1, 10 mg/kg IV) was 0.68, the “T/C on day 21” value ([1]; DLD1, 10 mg/kg IV) was 0.74 and the “T/C on day 0” value ([1]; DLD1, 20 mg/kg IV) was 1.00. The “T/C on day 7” value ([1]; DLD1, 20 mg/kg IV) was 0.55, the “T/C on day 14” value ([1]; DLD1, 20 mg/kg IV) was 0.44 and the “T/C on day 21” value ([1]; DLD1, 20 mg/kg IV) was 0.61. The “T/C on day 0” value ([1]; DLD1, 25 mg/kg IV) was 1.00, the “T/C on day 7” value ([1]; DLD1, 25 mg/kg IV) was 0.63 and the “T/C on day 14” value ([1]; DLD1, 25 mg/kg IV) was 0.49. For the same compound, the “T/C on day 21” value ([1]; DLD1, 25 mg/kg IV) was 0.48.

With C[C@H](Nc1c(-c2c(F)cc(OCCCN(C)C)cc2F)c(Cl)nc2ncnn12)C(F)(F)F.Cl [Example 1a, 5-chloro-6-{4-[3-(dimethylamino)propoxy]-2,6-difluorophenyl}-N-[(1S)-2,2,2-trifluoro-1-methylethyl][1,2,4]triazolo[1,5-a]pyrimidin-7-amine hydrogen chloride Salt] the “Percent in Cell Cycle Phase >4N” value (HeLa cells; 20 nM) was 2%, the “Percent in Cell Cycle Phase Apop” value (HeLa cells; 20 nM) was 13% and the “Percent in Cell Cycle Phase G1” value (HeLa cells; 20 nM) was 54%. For the same compound, the “Percent in Cell Cycle Phase G2/M” value (HeLa cells; 20 nM) was 14%, the “Percent in Cell Cycle Phase S” value (HeLa cells; 20 nM) was 18% and the “Percent in Cell Cycle Phase >4N” value (HeLa cells; 30 nM) was 1%. For the same compound, the “Percent in Cell Cycle Phase Apop” value (HeLa cells; 30 nM) was 38%, the “Percent in Cell Cycle Phase G1” value (HeLa cells; 30 nM) was 35% and the “Percent in Cell Cycle Phase G2/M” value (HeLa cells; 30 nM) was 14%. The “Percent in Cell Cycle Phase S” value (HeLa cells; 30 nM) was 12%, the “Percent in Cell Cycle Phase >4N” value (HeLa cells; 40 nM) was 1% and the “Percent in Cell Cycle Phase Apop” value (HeLa cells; 40 nM) was 71%. The “Percent in Cell Cycle Phase G1” value (HeLa cells; 40 nM) was 7%, the “Percent in Cell Cycle Phase G2/M” value (HeLa cells; 40 nM) was 13% and the “Percent in Cell Cycle Phase S” value (HeLa cells; 40 nM) was 8%. The “Percent in Cell Cycle Phase Apop” value (HeLa cells; 40 nM, listed as example 1a) was “about 70%”, the “Percent in Cell Cycle Phase G2/M” value (HeLa cells; 40 nM, listed as example 1a) was “no increase” and the “Percent in Cell Cycle Phase >4N” value (HeLa cells; 50 nM) was 2%. The “Percent in Cell Cycle Phase Apop” value (HeLa cells; 50 nM) was 63%, the “Percent in Cell Cycle Phase G1” value (HeLa cells; 50 nM) was 6% and the “Percent in Cell Cycle Phase G2/M” value (HeLa cells; 50 nM) was 20%. For the same compound, the “Percent in Cell Cycle Phase S” value (HeLa cells; 50 nM) was 9%, the “Percent in Cell Cycle Phase >4N” value (HeLa cells; 60 nM) was 3% and the “Percent in Cell Cycle Phase Apop” value (HeLa cells; 60 nM) was 52%. The “Percent in Cell Cycle Phase G1” value (HeLa cells; 60 nM) was 5%, the “Percent in Cell Cycle Phase G2/M” value (HeLa cells; 60 nM) was 32% and the “Percent in Cell Cycle Phase S” value (HeLa cells; 60 nM) was 10%. The “Percent in Cell Cycle Phase >4N” value (HeLa cells; 70 nM) was 4%, the “Percent in Cell Cycle Phase Apop” value (HeLa cells; 70 nM) was 26% and the “Percent in Cell Cycle Phase G1” value (HeLa cells; 70 nM) was 3%. For the same compound, the “Percent in Cell Cycle Phase G2/M” value (HeLa cells; 70 nM) was 57%, the “Percent in Cell Cycle Phase S” value (HeLa cells; 70 nM) was 9% and the “Percent in Cell Cycle Phase >4N” value (HeLa cells; 80 nM) was 5%. The “Percent in Cell Cycle Phase Apop” value (HeLa cells; 80 nM) was 24%, the “Percent in Cell Cycle Phase G1” value (HeLa cells; 80 nM) was 4% and the “Percent in Cell Cycle Phase G2/M” value (HeLa cells; 80 nM) was 58%. For the same compound, the “Percent in Cell Cycle Phase S” value (HeLa cells; 80 nM) was 9%, the “Percent in Cell Cycle Phase >4N” value (HeLa cells; 90 nM) was 6% and the “Percent in Cell Cycle Phase Apop” value (HeLa cells; 90 nM) was 22%. For the same compound, the “Percent in Cell Cycle Phase G1” value (HeLa cells; 90 nM) was 5%, the “Percent in Cell Cycle Phase G2/M” value (HeLa cells; 90 nM) was 58% and the “Percent in Cell Cycle Phase S” value (HeLa cells; 90 nM) was 10%. The “Percent in Cell Cycle Phase >4N” value (HeLa cells; 100 nM) was 5%, the “Percent in Cell Cycle Phase Apop” value (HeLa cells; 100 nM) was 24% and the “Percent in Cell Cycle Phase G1” value (HeLa cells; 100 nM) was 4%. The “Percent in Cell Cycle Phase G2/M” value (HeLa cells; 100 nM) was 58%, the “Percent in Cell Cycle Phase S” value (HeLa cells; 100 nM) was 10% and the “Percent in Cell Cycle Phase >4N” value (HeLa cells; 110 nM) was 5%. The “Percent in Cell Cycle Phase Apop” value (HeLa cells; 110 nM) was 24%, the “Percent in Cell Cycle Phase G1” value (HeLa cells; 110 nM) was 6% and the “Percent in Cell Cycle Phase G2/M” value (HeLa cells; 110 nM) was 53%. For the same compound, the “Percent in Cell Cycle Phase S” value (HeLa cells; 110 nM) was 13%, the “Percent in Cell Cycle Phase >4N” value (HeLa cells; 120 nM) was 5% and the “Percent in Cell Cycle Phase Apop” value (HeLa cells; 120 nM) was 28%. The “Percent in Cell Cycle Phase G1” value (HeLa cells; 120 nM) was 6%, the “Percent in Cell Cycle Phase G2/M” value (HeLa cells; 120 nM) was 48% and the “Percent in Cell Cycle Phase S” value (HeLa cells; 120 nM) was 14%. For the same compound, the “T/C on day 0” value ([1]; DLD1, 10 mg/kg IV) was 1.00, the “T/C on day 7” value ([1]; DLD1, 10 mg/kg IV) was 0.63 and the “T/C on day 14” value ([1]; DLD1, 10 mg/kg IV) was 0.51. The “T/C on day 21” value ([1]; DLD1, 10 mg/kg IV) was 0.58, the “T/C on day 0” value ([1]; DLD1, 15 mg/kg IV) was 1.00 and the “T/C on day 7” value ([1]; DLD1, 15 mg/kg IV) was 0.21**. The “T/C on day 14” value ([1]; DLD1, 15 mg/kg IV) was 0.25, the “T/C on day 21” value ([1]; DLD1, 15 mg/kg IV) was 0.31 and the “T/C on day 0” value ([1]; DLD1, 20 mg/kg IV) was 1.00. The “T/C on day 7” value ([1]; DLD1, 20 mg/kg IV) was 0.31** and the “toxicity of treatment dose” value ([1]; DLD1 xenograft mice, 20 mg/kg IV, day 14) was “Toxic”.
